Experimental data taken from US10947196B2, “Beta adrenergic agonist and methods of using the same” (CURASEN THERAPEUTICS, INC., priority 2019, dated 2021).
Like-named read-outs stand apart in the source and are kept apart here.

What was measured:
[1] = Hepatocyte stability (mouse); assay type: in vitro ADME; conditions: 0.5×10^6 viable cells/mL
Procedure: 10 mM and 100 μM stock solutions of test compound(s) and a positive control were prepared in appropriate solvent (DMSO). In separate conical tubes, the 10 mM test compound and the positive control were diluted to 100 μM by combining 198 μL of 50% acetonitrile/50% water and 2 μL of 10 mM stock. The 100 μM test compound and the positive control were diluted to 30 μM by combining 140 μL of 50% acetonitrile/50% water and 60 μL of 100 μM stock solution. The 100 μM test compound and the positive control were diluted to 10 μM by combining 180 μL of 50% acetonitrile/50% water and 20 μL of 100 μM stock solution. The 100 μM test compound and the positive control were diluted to 3 μM by combining 194 μL of 50% acetonitrile/50% water and 6 μL of 100 μM stock solution.
Incubation medium (William's E Medium supplemented with GlutaMAX) and hepatocyte thawing medium was placed in a 37° C. water bath, and allowed to warm for at least 15 minutes prior to use. […]
Using AOPI staining solution, cells were counted and the viable cell density was determined. […]
All calculations were carried out using Microsoft Excel. Peak areas were determined from extracted ion chromatograms. […]
The in vitro half-life (in vitro t1/2) was determined from the slope value: in vitro t1/2=0.693/k

hERG channel = hERG channel (Homo sapiens (Human), UniProt Q12809); assay: hERG manual patch clamp; assay type: cell-based
Procedure: Cell lines and cell culture. HEK 293 cell line stably expressing hERG channel (Cat #K1236) was purchased from Invitrogen. The cells are cultured in 85% DMEM, 10% dialyzed FBS, 0.1 mM NEAA, 25 mM HEPES, 100 U/mL Penicillin-Streptomycin and 5 μg/mL Blasticidin and 400 μg/mL Geneticin. Cells were split using TrypLE™ Express about three times a week, and maintained between ˜40% to […] confluence. Before the assay, the cells were transferred onto the coverslips at 5×10^5 cells/per 6 cm cell culture dish and induced with doxycycline at 1 μg/mL for 48 hours.
Solution preparations. Extracellular solution (in mM): 132 NaCl, 4 KCl, 3 CaCl2, 0.5 MgCl2, 11.1 glucose, and 10 HEPES (pH adjusted to 7.35 with NaOH) Intracellular solution (in mM): 140 KCl, 2 MgCl2, 10 EGTA, 10 HEPES and 5 MgATP (pH adjusted to 7.35 with KOH). […]
Experimental procedure. […] The holding potential was set to −90 mV for 500 ms and the current was recorded at 50 kHz and filtered at 10 kHz. […]
The hERG current was elicited by depolarizing at +30 mV for 4.8 seconds and then the voltage was taken back to −50 mV for 5.2 seconds to remove the inactivation and observe the deactivating tail current. […] The current was recorded for 120 seconds to assess the current stability. […]
Data that met the above criteria for hERG current quality were further analyzed. Percent hERG current inhibition was calculated using the following equation. […]

hERG channel, sequence (Q12809 whole entry): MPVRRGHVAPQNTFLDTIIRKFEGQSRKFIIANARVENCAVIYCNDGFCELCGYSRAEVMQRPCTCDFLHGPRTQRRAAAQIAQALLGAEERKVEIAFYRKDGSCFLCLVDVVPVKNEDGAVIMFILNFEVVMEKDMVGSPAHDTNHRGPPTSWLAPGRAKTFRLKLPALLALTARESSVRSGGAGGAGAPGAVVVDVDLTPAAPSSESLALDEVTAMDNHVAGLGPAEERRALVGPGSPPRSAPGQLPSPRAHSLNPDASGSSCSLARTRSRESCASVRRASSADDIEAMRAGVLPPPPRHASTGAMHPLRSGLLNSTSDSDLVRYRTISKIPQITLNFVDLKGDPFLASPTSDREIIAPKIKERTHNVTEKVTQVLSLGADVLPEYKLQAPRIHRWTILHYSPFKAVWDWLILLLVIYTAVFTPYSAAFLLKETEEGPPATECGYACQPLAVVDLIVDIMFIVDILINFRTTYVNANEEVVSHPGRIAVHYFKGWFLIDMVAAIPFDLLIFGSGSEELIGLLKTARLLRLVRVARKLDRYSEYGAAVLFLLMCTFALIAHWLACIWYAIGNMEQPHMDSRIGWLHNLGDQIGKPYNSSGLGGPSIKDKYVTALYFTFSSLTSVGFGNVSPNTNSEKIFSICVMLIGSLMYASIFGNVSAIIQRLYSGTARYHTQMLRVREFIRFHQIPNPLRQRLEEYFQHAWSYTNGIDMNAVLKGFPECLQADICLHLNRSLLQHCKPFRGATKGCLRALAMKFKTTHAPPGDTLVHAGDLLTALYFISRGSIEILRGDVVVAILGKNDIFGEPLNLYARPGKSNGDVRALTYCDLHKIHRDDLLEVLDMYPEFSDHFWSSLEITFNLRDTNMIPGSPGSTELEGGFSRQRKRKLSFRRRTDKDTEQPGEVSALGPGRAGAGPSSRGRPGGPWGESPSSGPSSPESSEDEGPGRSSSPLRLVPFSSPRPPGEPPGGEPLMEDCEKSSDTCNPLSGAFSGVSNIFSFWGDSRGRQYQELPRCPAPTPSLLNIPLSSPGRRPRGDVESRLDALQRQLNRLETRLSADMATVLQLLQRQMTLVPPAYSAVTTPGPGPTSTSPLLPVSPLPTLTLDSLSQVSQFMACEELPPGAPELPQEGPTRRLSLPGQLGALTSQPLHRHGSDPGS

## CC(C)(C)NC[C@H](O)c1cccc(C#N)n1 [Compound 03-5, (S)-6-(2-(tert-butylamino)-1-hydroxyethyl)picolinonitrile]
[1]
  Hepatocyte stability, Mouse: 1.46 μL/min/10^6 cells
hERG channel; manual patch clamp, HEK 293 cells, read-out: hERG IC50
  IC50: > 30 µM

## CC(C)(C)NC[C@H](O)c1cccc(C(F)(F)F)n1 [Compound 03-3]
hERG channel
  IC50: > 30 µM

## Cc1ncccc1[C@@H](O)CNC(C)(C)C [Compound 03-115]
[1]
  Hepatocyte stability, Mouse: 1.08 μL/min/10^6 cells
